{"source": "patent US11274132B2", "about": "“Combined preparations of PKM2 modulators and HMGB1” (Ruprecht-Karls-Universität Heidelberg, priority 2015, dated 2022)", "key": {"colorectal cancer cells": {"tested_on": "colorectal cancer cells", "assay": "Crystal violet cytotoxicity assay, cell lines not given", "format": "cell-based", "details": "HMGB1 80 nM, 72 h", "protocol": "(§1) Human colon carcinoma cell lines SW480, HCT116, HT29 and Caco2, the human glioblastoma cell line U251MG and the Natural killer cell line NK-92 Cl were purchased from ATCC. Cell lines were regularly tested for contamination by multiplex PCR performed in the Genomics and Proteomics Core Facility 2 (DKFZ, Heidelberg, Germany). For experiments, cells were cultured for no more than 10 passages. Rho zero cells were generated as described earlier 1. (Gdynia, G. et al. Danger signaling protein HMGB1 induces a distinct form of cell death accompanied by formation of giant mitochondria. Cancer research 70, 8558-8568). Cells used in the experiments were cultured in RPMI (#1640, colon carcinomas, NK cells) or DMEM high glucose (#41965-039, glioblastoma cells) medium. Rho zero cells were generated as described earlier (Gdynia, G. et al. ibd.). Briefly, cells were cultured in RPMI medium (10% FCS, 1% P/S) supplemented with 250 ng/ml ethidiumbromide, 50 μg/ml L-pyruvate and 5 mg/ml uridine over a period of 12 weeks. For cytotoxicity measurements, cells were cultured in 96-well plates, treated with recombinant human HMGB1 protein (Sigma-Aldrich®), glycyrrhizinic acid ((3β, 18α)-30-hydroxy-11, 30-dioxoolean-12-en-3-yl 2-O-β-D-glucopyranuronosyl-β-D-glucopyranosiduronic acid)) (Sigma-Aldrich®), 10 μM (non-toxic) or 100 μM (cytotoxic) P-M2tide (aa sequence: GGAVDDDpYAQFANGG; #BML-P239-0001; Enzo Life Sciences) or 100 μM ML-265 (Cayman Chemical), then cell viability was assessed by crystal violet staining (Gillies, R. J., Didier, N. & Denton, M. Determination of cell number in monolayer cultures. Analytical biochemistry 159, 109-113 (1986)). Malic enzyme 1 knock-down was performed with 40 nM siRNA using lipofectamine in 6-well plates followed by treatment with 80 nM HMGB1 for 72 h. Sequences of siRNA were: ME1, 5′-[…]-3′ and scrambled control 5′-CCUGCAGUACUUCAAGCGGtt-3′. PKM2 siRNA was from Santa Cruz. A nonspecific siRNA served as control (Dharmacon, Schwerte, Germany). For overexpression of PKM2 or ME1, cells were transfected with pCMV-PKM2 (Sino Biological Inc., Beijing, China) or pCMV-ME1 (OriGene, Rockville, Md., USA) using Lipofectamine 2000. For cytotoxicity measurements confluent cells were cultured in 96-well plates if not otherwise indicated. Cytotoxic activity of supernatants from stimulated NK cells was assessed in 96-well plates for 3 days with RPMI medium as reference. Recombinant human HMGB1 (10 ng, Sigma) suited as positive control. For mass isotopomer assays, cells were cultured in glucose- or glutamine-free medium supplemented with either uniformly labeled (U)-13C-D-glucose or U-13C-glutamine (Sigma-Aldrich®)."}, "ATP": {"tested_on": "ATP", "assay": "Cellular ATP after HMGB1 treatment", "format": "cell-based, human"}, "tetrameric PK M2": {"target": "T1, tetrameric PK M2 (Homo sapiens, UniProt P14618)", "T1 construct": "Activities of glycolytic enzymes measured in cytosolic fractions after treatment with HMGB1; endogenous in cells; host or cells: SW480, HCT116, HT29 cytosolic fractions; homogenates of human colon cancer tissue slices", "T1 sequence (P14618 2-531)": "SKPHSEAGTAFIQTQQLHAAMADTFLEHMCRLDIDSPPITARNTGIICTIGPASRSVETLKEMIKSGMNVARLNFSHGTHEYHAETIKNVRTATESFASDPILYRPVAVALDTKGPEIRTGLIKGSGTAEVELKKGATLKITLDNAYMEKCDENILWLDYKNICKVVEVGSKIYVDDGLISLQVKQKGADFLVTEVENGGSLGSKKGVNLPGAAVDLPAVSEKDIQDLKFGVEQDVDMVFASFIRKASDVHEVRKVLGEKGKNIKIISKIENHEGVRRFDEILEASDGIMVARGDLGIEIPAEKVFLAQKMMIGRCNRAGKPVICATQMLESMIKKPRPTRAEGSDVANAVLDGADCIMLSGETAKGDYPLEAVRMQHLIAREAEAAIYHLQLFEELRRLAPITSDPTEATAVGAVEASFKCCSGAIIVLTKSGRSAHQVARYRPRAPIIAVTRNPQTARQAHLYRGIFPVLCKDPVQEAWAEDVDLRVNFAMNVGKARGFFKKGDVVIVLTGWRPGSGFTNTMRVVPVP", "assay": "Pyruvate kinase enzymatic assay in cytosolic fractions / homogenates (low PEP)", "format": "cell-based", "protocol": "Enzymatic activities of respiratory chain complexes, glycolytic proteins and malic enzyme were determined in subcellular fractions as previously described (Kaminski, M. M. et al. T cell activation is driven by an ADP-dependent glucokinase linking enhanced glycolysis with mitochondrial reactive oxygen species generation. Cell reports 2, 1300-1315 (2012).Bruncko, M. et al. Naphthamidine urokinase plasminogen activator inhibitors with improved pharmacokinetic properties. Bioorganic & medicinal chemistry letters 15, 93-98, (2005)) using a computer-tuneable spectrophotometer (Spectramax Plus Microplate Reader, Molecular Devices; Sunny Vale, Calif., USA) operating in the dual wavelength mode; samples were analyzed in temperature-controlled 96-well plates in a final volume of 300 μl. Activity of ME1 was recorded in presence of increasing amounts of malic acid (0.02, 0.05, 0.1, 0.2, 0.5, 1, 2.5 mM). Vmax and Km were calculated using a Hanes-Woolf plot. In the presence of high substrate levels the Km for malic acid was similar in all three tested cell lines (SW480: 0.32 mM, HCT116: 0.30 mM, HT29: 0.31 mM). Vmax (mU/mg protein) values were 3.38 (SW480, 0.5-5.0 mM malic acid), 5.77 (HCT116, 0.5-5.0 mM malic acid) and 3.68 (HT29, 0.5-5.0 mM malic acid) and 1.68 (SW480, 0.02-0.2 mM malic acid), 3.24 (HCT116, 0.02-0.2 mM malic acid) and 1.89 (HT29, 0.02-0.2 mM malic acid). Two isoforms of ME1, mitochondrial (NAD(P)+dependent) ME3 and mitochondrial (NAD+dependent) ME2, had very low or no detectable activities (data not shown)."}, "HT29 cells": {"tested_on": "HT29 cells", "assay": "Crystal violet cytotoxicity assay", "format": "cell-based", "protocol": "as §1"}, "[1]": {"tested_on": "SW480 colorectal cancer cells", "assay": "Crystal violet cytotoxicity assay", "format": "cell-based", "details": "72 h", "protocol": "as §1"}, "[2]": {"tested_on": "HCT116 colorectal cancer cells", "assay": "Crystal violet cytotoxicity assay", "format": "cell-based", "details": "72 h", "protocol": "as §1"}, "[3]": {"tested_on": "glucose flux (glycolysis)", "assay": "Glycolysis: conversion of 5-3H-Glucose to 3H2O", "format": "cell-based, human", "details": "HMGB1 80 nM, 24 h", "protocol": "(§2) Lactate derived from the metabolism of ^13C6-D-glucose or ^13C5-glutamine was determined by comparing the CH3 group intensities of labeled and non-labeled lactate in NMR. Mitochondrial respiration was measured using an Oroboros 1 oxygraph system. Glycolysis was measured by monitoring the conversion of 5-^3H-Glucose to ^3H2O. Incorporation of ^14C into RNA ribose from U-^14C-labelled glucose was taken as glucose utilization in the pentose phosphate shunt. Enzymatic activities were determined in subcellular fractions as previously described^24."}, "ATP production": {"tested_on": "ATP production", "assay": "ATP production calculated from lactate production rates and oxygen consumption", "format": "cell-based, human", "details": "SW480 cells; HMGB1 80 nM, 24 h", "protocol": "as §2\nFor analysis of ^13C-lactate efflux 1 ml of the cellular supernatant was centrifuged (8,000×g, 10 min, 4° C.) to spin down cellular debris. To 500 μl of the supernatant 10% of D2O were added respectively and transferred to 5 mm NMR sample tubes. The samples were measured with a Bruker AvanceIII 600 NMR spectrometer, equipped with a cryogenically cooled detection probe (QNP-CryoProbe™)."}, "[4]": {"details": "NK cell derived HMGB1 approx. 16 nM, recombinant human HMGB1 80 nM"}}}
{"substance": "HMGB1: recombinant human HMGB1 protein (Sigma-Aldrich); High Mobility Group Box 1 polypeptide, human, SEQ ID NO: 4", "values": [{"measurement": "sensitivity of cells to HMGB1 after PKM2 down-regulation (siRNA)", "setting": "colorectal cancer cells", "result": "sensitized"}, {"measurement": "sensitivity of cells to HMGB1 after PKM2 overexpression", "setting": "colorectal cancer cells", "result": "more resistant"}, {"measurement": "ATP", "setting": "ATP; HCT116 cells", "result": "substantial decrease"}, {"measurement": "ATP", "setting": "ATP; SW480 cells", "result": "substantial decrease"}, {"measurement": "tetrameric PK M2 activity", "setting": "tetrameric PK M2; all colorectal cancer cell lines tested, HMGB1 80 nM, 24 h", "result": "specifically inhibited"}, {"measurement": "tetrameric PK M2 activity", "setting": "tetrameric PK M2; ex vivo tissue slice cultures, HMGB1 160 nM, 72 h", "result": "specifically inhibited"}, {"measurement": "sensitivity of cells to HMGB1", "setting": "HT29 cells; low to intermediate HMGB1 concentrations (16 to 80 nM)", "result": "resistant"}, {"measurement": "sensitivity towards HMGB1 cytotoxicity after down-regulation of ME1", "setting": "HT29 cells; siRNA knock-down of ME1, HMGB1 80 nM, 72 h", "result": "sensitization"}, {"measurement": "cell death (cytotoxicity)", "setting": "[1]; [4]", "result": "efficiently killed"}, {"measurement": "sensitivity of respiratory chain deficient (ρ0) cells to HMGB1", "setting": "[1]; ρ0 SW480, HMGB1 160 nM", "result": "almost completely resistant"}, {"measurement": "cell death (cytotoxicity)", "setting": "[2]; [4]", "result": "efficiently killed"}, {"measurement": "sensitivity of respiratory chain deficient (ρ0) cells to HMGB1", "setting": "[2]; ρ0 HCT116, HMGB1 160 nM", "result": "almost completely resistant"}, {"measurement": "glucose flux (5-3H-glucose turn-over)", "setting": "[3]", "result": "reduced at the enolase reaction step"}, {"measurement": "decline of ATP production", "setting": "ATP production", "result": "~50", "unit": "%"}]}
